Compound in the experiment “Temozolomide + Foretinib”: Cn1nnc2c(C(N)=O)ncn2c1=O [Temozolomide] + COc1cc2c(Oc3ccc(NC(=O)C4(C(=O)Nc5ccc(F)cc5)CC4)cc3F)ccnc2cc1OCCCN1CCOCC1 [Foretinib] (partner 0.25 µM)
Nature of the experiment: relative viability (nuclei count vs DMSO), 5 days (fraction); higher = more cells survive. Summed up:
(§1)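 Lung cancer cell lines in 1536-well plates were dosed by pin tool the day after seeding, either with one drug alone or with a fixed anchor-drug dose plus five library-drug doses (not always all listed) in √10 steps. After 5 days, cells were fixed and their nuclei stained in one step (final 0.05% Triton X-100, 1% formaldehyde, 1 ug/ml Hoechst), then counted on 4× images. Relative viability is the nuclei count in treated wells divided by that in vehicle wells. Values are medians of duplicate plates.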

Compound in the experiment “AZD5582 + Navitoclax”: C[C@@H](C(=O)N[C@@H](C1CCCCC1)C(=O)N2CCC[C@H]2C(=O)N[C@@H]3[C@@H](CC4=CC=CC=C34)OCC#CC#CCO[C@@H]5CC6=CC=CC=C6[C@@H]5NC(=O)[C@@H]7CCCN7C(=O)[C@H](C8CCCCC8)NC(=O)[C@H](C)NC)NC [AZD5582] + CC1(C)CCC(c2ccc(Cl)cc2)=C(CN2CCN(c3ccc(C(=O)NS(=O)(=O)c4ccc(N[C@H](CCN5CCOCC5)CSc5ccccc5)c(S(=O)(=O)C(F)(F)F)c4)cc3)CC2)C1 [Navitoclax] (partner 0.5 µM)
The description is as above. Summed up:
as §1

Regarding LC-2-ad, the relative viability turned out to be 0.838 with Temozolomide + Foretinib (first compound 0.2 µM); 1 in the experiment with Temozolomide + Foretinib (first compound 0.6325 µM); 0.971 in the experiment with Temozolomide + Foretinib (first compound 2 µM); 0.898 with Temozolomide + Foretinib (first compound 6.325 µM); 0.765 with Temozolomide + Foretinib (first compound 20 µM); 0.331 with AZD5582 + Navitoclax (first compound 0.001581 µM). Also, the figures for the relative viability in the experiment with AZD5582 + Navitoclax (first compound 0.005 µM), with AZD5582 + Navitoclax (first compound 0.01581 µM) and in the experiment with AZD5582 + Navitoclax (first compound 0.05 µM) were 0.454, 0.468 and 0.384, respectively.
Turning to LXF-289, the relative viability with Temozolomide + Foretinib (first compound 0.2 µM) amounted to 0.978; in the experiment with Temozolomide + Foretinib (first compound 0.6325 µM) it was 0.998; with Temozolomide + Foretinib (first compound 2 µM), 0.985; with Temozolomide + Foretinib (first compound 6.325 µM), 0.964; in the experiment with Temozolomide + Foretinib (first compound 20 µM), 0.908; with AZD5582 + Navitoclax (first compound 0.001581 µM), 0.948. Besides, the relative viability was determined as 0.935 in the experiment with AZD5582 + Navitoclax (first compound 0.005 µM), 0.919 in the experiment with AZD5582 + Navitoclax (first compound 0.01581 µM) and 0.934 with AZD5582 + Navitoclax (first compound 0.05 µM).

Values taken from the supplement of paper PMC10307832.
